Experimental data taken from the NIST ThermoML archive (doi:10.1021/acs.jced.7b00227).
± gives the expanded uncertainty stated by the source.

What was measured:
[1] = Molar enthalpy of transition or fusion; conditions: Crystal; DSC
[2] = for Normal melting temperature: DTA

Compound: O=Cc1ccccc1O [2-hydroxybenzaldehyde]
- Molar enthalpy of transition or fusion [1]: 3.18 ± 0.215 kcal/mol
- vapor or sublimation pressure ([2]; 264.55 K, Crystal, Closed cell (Static) method): 0.00232 ± 0.00013 kPa
- vapor or sublimation pressure ([2]; 266.52 K, Crystal, Closed cell (Static) method): 0.00319 ± 0.00016 kPa
- vapor or sublimation pressure ([2]; 266.54 K, Metastable liquid, Closed cell (Static) method): 0.00505 ± 0.0003 kPa
- vapor or sublimation pressure ([2]; 268.49 K, Crystal, Closed cell (Static) method): 0.00453 ± 0.0002 kPa
- vapor or sublimation pressure ([2]; 268.5 K, Metastable liquid, Closed cell (Static) method): 0.00606 ± 0.00034 kPa
- vapor or sublimation pressure ([2]; 270.45 K, Crystal, Closed cell (Static) method): 0.00599 ± 0.00025 kPa
- vapor or sublimation pressure ([2]; 270.45 K, Metastable liquid, Closed cell (Static) method): 0.00727 ± 0.00037 kPa
- vapor or sublimation pressure ([2]; 272.44 K, Metastable liquid, Closed cell (Static) method): 0.00884 ± 0.00041 kPa
- vapor or sublimation pressure ([2]; 274.4 K, Closed cell (Static) method, Liquid): 0.01038 ± 0.00046 kPa
- vapor or sublimation pressure ([2]; 276.37 K, Closed cell (Static) method, Liquid): 0.01235 ± 0.00052 kPa
- vapor or sublimation pressure ([2]; 278.29 K, Closed cell (Static) method, Liquid): 0.01469 ± 0.00057 kPa
- vapor or sublimation pressure ([2]; 280.27 K, Closed cell (Static) method, Liquid): 0.01734 ± 0.0006 kPa
- vapor or sublimation pressure ([2]; 282.24 K, Closed cell (Static) method, Liquid): 0.02049 ± 0.00065 kPa
- vapor or sublimation pressure ([2]; 284.23 K, Closed cell (Static) method, Liquid): 0.02411 ± 0.0007 kPa
- vapor or sublimation pressure ([2]; 286.21 K, Closed cell (Static) method, Liquid): 0.02842 ± 0.00077 kPa
- vapor or sublimation pressure ([2]; 288.16 K, Closed cell (Static) method, Liquid): 0.03343 ± 0.00084 kPa
- vapor or sublimation pressure ([2]; 290.13 K, Closed cell (Static) method, Liquid): 0.03878 ± 0.00092 kPa
- vapor or sublimation pressure ([2]; 292.14 K, Closed cell (Static) method, Liquid): 0.0453 ± 0.001 kPa
- vapor or sublimation pressure ([2]; 294.09 K, Closed cell (Static) method, Liquid): 0.05232 ± 0.0011 kPa
- vapor or sublimation pressure ([2]; 296 K, Closed cell (Static) method, Liquid): 0.06145 ± 0.0013 kPa
- vapor or sublimation pressure ([2]; 298.06 K, Closed cell (Static) method, Liquid): 0.0702 ± 0.0014 kPa
- vapor or sublimation pressure ([2]; 300.04 K, Closed cell (Static) method, Liquid): 0.08175 ± 0.0016 kPa
- vapor or sublimation pressure ([2]; 302.02 K, Closed cell (Static) method, Liquid): 0.09355 ± 0.0018 kPa
- vapor or sublimation pressure ([2]; 304.24 K, Closed cell (Static) method, Liquid): 0.1075 ± 0.002 kPa
- vapor or sublimation pressure ([2]; 305.97 K, Closed cell (Static) method, Liquid): 0.1228 ± 0.0022 kPa
- vapor or sublimation pressure ([2]; 307.92 K, Closed cell (Static) method, Liquid): 0.1409 ± 0.0021 kPa
- vapor or sublimation pressure ([2]; 309.88 K, Closed cell (Static) method, Liquid): 0.1603 ± 0.0023 kPa
- vapor or sublimation pressure ([2]; 311.9 K, Closed cell (Static) method, Liquid): 0.1832 ± 0.0025 kPa
- vapor or sublimation pressure ([2]; 313.81 K, Closed cell (Static) method, Liquid): 0.2071 ± 0.0027 kPa
- vapor or sublimation pressure ([2]; 315.78 K, Closed cell (Static) method, Liquid): 0.2358 ± 0.0029 kPa
- vapor or sublimation pressure ([2]; 317.77 K, Closed cell (Static) method, Liquid): 0.2661 ± 0.0032 kPa
- vapor or sublimation pressure ([2]; 319.78 K, Closed cell (Static) method, Liquid): 0.3014 ± 0.0035 kPa
- vapor or sublimation pressure ([2]; 321.96 K, Closed cell (Static) method, Liquid): 0.3441 ± 0.0039 kPa
- vapor or sublimation pressure ([2]; 323.95 K, Closed cell (Static) method, Liquid): 0.3875 ± 0.0043 kPa
- vapor or sublimation pressure ([2]; 325.91 K, Closed cell (Static) method, Liquid): 0.4352 ± 0.0047 kPa
- vapor or sublimation pressure ([2]; 327.88 K, Closed cell (Static) method, Liquid): 0.4884 ± 0.0051 kPa
- vapor or sublimation pressure ([2]; 329.84 K, Closed cell (Static) method, Liquid): 0.5465 ± 0.0057 kPa
- vapor or sublimation pressure ([2]; 331.84 K, Closed cell (Static) method, Liquid): 0.611 ± 0.0062 kPa
- vapor or sublimation pressure ([2]; 333.81 K, Closed cell (Static) method, Liquid): 0.682 ± 0.0068 kPa
- vapor or sublimation pressure ([2]; 335.78 K, Closed cell (Static) method, Liquid): 0.7604 ± 0.0075 kPa
- vapor or sublimation pressure ([2]; 337.76 K, Closed cell (Static) method, Liquid): 0.846 ± 0.0083 kPa
- vapor or sublimation pressure ([2]; 339.74 K, Closed cell (Static) method, Liquid): 0.9402 ± 0.0091 kPa
- vapor or sublimation pressure ([2]; 341.67 K, Closed cell (Static) method, Liquid): 1.042 ± 0.01 kPa
- Normal melting temperature ([2]; Crystal): -0.8 ± 0.5 °C

Compound: O=Cc1cccc(O)c1 [3-hydroxybenzaldehyde]
- Molar enthalpy of transition or fusion [1]: 6.12 ± 0.239 kcal/mol
- vapor or sublimation pressure ([2]; 309.13 K, Crystal, Calculated from knudsen effusion weight loss): 8.9e-05 ± 2e-05 kPa
- vapor or sublimation pressure ([2]; 311.29 K, Crystal, Calculated from knudsen effusion weight loss): 0.000118 ± 2e-05 kPa
- vapor or sublimation pressure ([2]; 313.21 K, Crystal, Calculated from knudsen effusion weight loss): 0.00015 ± 2.1e-05 kPa
- vapor or sublimation pressure ([2]; 315.13 K, Crystal, Calculated from knudsen effusion weight loss): 0.000189 ± 2.1e-05 kPa
- vapor or sublimation pressure ([2]; 317.29 K, Crystal, Calculated from knudsen effusion weight loss): 0.000243 ± 2.2e-05 kPa
- vapor or sublimation pressure ([2]; 319.2 K, Crystal, Calculated from knudsen effusion weight loss): 0.000308 ± 2.3e-05 kPa
- vapor or sublimation pressure ([2]; 321.13 K, Crystal, Calculated from knudsen effusion weight loss): 0.00039 ± 2.4e-05 kPa
- vapor or sublimation pressure ([2]; 323.29 K, Crystal, Calculated from knudsen effusion weight loss): 0.00049 ± 2.6e-05 kPa
- vapor or sublimation pressure ([2]; 324.86 K, Crystal, Closed cell (Static) method): 0.00061 ± 0.00011 kPa
- vapor or sublimation pressure ([2]; 325.23 K, Crystal, Calculated from knudsen effusion weight loss): 0.000616 ± 3e-05 kPa
- vapor or sublimation pressure ([2]; 326.85 K, Crystal, Closed cell (Static) method): 0.00076 ± 0.00012 kPa
- vapor or sublimation pressure ([2]; 327.14 K, Crystal, Calculated from knudsen effusion weight loss): 0.000763 ± 3.4e-05 kPa
- vapor or sublimation pressure ([2]; 328.83 K, Crystal, Closed cell (Static) method): 0.00094 ± 0.00012 kPa
- vapor or sublimation pressure ([2]; 329.29 K, Crystal, Calculated from knudsen effusion weight loss): 0.000957 ± 3.9e-05 kPa
- vapor or sublimation pressure ([2]; 330.84 K, Crystal, Closed cell (Static) method): 0.00116 ± 0.00012 kPa
- vapor or sublimation pressure ([2]; 331.22 K, Crystal, Calculated from knudsen effusion weight loss): 0.001188 ± 9.6e-05 kPa
- vapor or sublimation pressure ([2]; 332.78 K, Crystal, Closed cell (Static) method): 0.00142 ± 0.00013 kPa
- vapor or sublimation pressure ([2]; 334.76 K, Crystal, Closed cell (Static) method): 0.00176 ± 0.00013 kPa
- vapor or sublimation pressure ([2]; 336.76 K, Crystal, Closed cell (Static) method): 0.00219 ± 0.00014 kPa
- vapor or sublimation pressure ([2]; 338.72 K, Crystal, Closed cell (Static) method): 0.00269 ± 0.00016 kPa
- vapor or sublimation pressure ([2]; 340.73 K, Crystal, Closed cell (Static) method): 0.00336 ± 0.00018 kPa
- vapor or sublimation pressure ([2]; 342.63 K, Crystal, Closed cell (Static) method): 0.00405 ± 0.0002 kPa
- vapor or sublimation pressure ([2]; 344.71 K, Crystal, Closed cell (Static) method): 0.00495 ± 0.00023 kPa
- vapor or sublimation pressure ([2]; 346.64 K, Crystal, Closed cell (Static) method): 0.006 ± 0.00026 kPa
- vapor or sublimation pressure ([2]; 348.61 K, Crystal, Closed cell (Static) method): 0.00733 ± 0.00031 kPa
- vapor or sublimation pressure ([2]; 350.55 K, Crystal, Closed cell (Static) method): 0.00897 ± 0.00037 kPa
- vapor or sublimation pressure ([2]; 352.54 K, Crystal, Closed cell (Static) method): 0.01085 ± 0.00044 kPa
- vapor or sublimation pressure ([2]; 354.49 K, Crystal, Closed cell (Static) method): 0.01289 ± 0.00052 kPa
- vapor or sublimation pressure ([2]; 356.45 K, Crystal, Closed cell (Static) method): 0.01575 ± 0.00056 kPa
- vapor or sublimation pressure ([2]; 358.45 K, Crystal, Closed cell (Static) method): 0.01898 ± 0.00061 kPa
- vapor or sublimation pressure ([2]; 360.41 K, Crystal, Closed cell (Static) method): 0.02275 ± 0.00067 kPa
- vapor or sublimation pressure ([2]; 362.4 K, Crystal, Closed cell (Static) method): 0.02727 ± 0.00074 kPa
- vapor or sublimation pressure ([2]; 364.34 K, Crystal, Closed cell (Static) method): 0.03226 ± 0.00081 kPa
- vapor or sublimation pressure ([2]; 366.32 K, Crystal, Closed cell (Static) method): 0.03884 ± 0.00091 kPa
- vapor or sublimation pressure ([2]; 368.21 K, Crystal, Closed cell (Static) method): 0.04637 ± 0.001 kPa
- vapor or sublimation pressure ([2]; 368.31 K, Metastable liquid, Closed cell (Static) method): 0.05807 ± 0.0012 kPa
- vapor or sublimation pressure ([2]; 370.35 K, Metastable liquid, Closed cell (Static) method): 0.06605 ± 0.0013 kPa
- vapor or sublimation pressure ([2]; 372.25 K, Metastable liquid, Closed cell (Static) method): 0.07435 ± 0.0015 kPa
- vapor or sublimation pressure ([2]; 374.24 K, Metastable liquid, Closed cell (Static) method): 0.08475 ± 0.0016 kPa
- vapor or sublimation pressure ([2]; 376.14 K, Metastable liquid, Closed cell (Static) method): 0.09434 ± 0.0018 kPa
- vapor or sublimation pressure ([2]; 378.15 K, Closed cell (Static) method, Liquid): 0.1083 ± 0.002 kPa
- vapor or sublimation pressure ([2]; 380.15 K, Closed cell (Static) method, Liquid): 0.1217 ± 0.0022 kPa
- vapor or sublimation pressure ([2]; 382.09 K, Closed cell (Static) method, Liquid): 0.1367 ± 0.0021 kPa
- vapor or sublimation pressure ([2]; 384.06 K, Closed cell (Static) method, Liquid): 0.1536 ± 0.0022 kPa
- vapor or sublimation pressure ([2]; 386.07 K, Closed cell (Static) method, Liquid): 0.1727 ± 0.0024 kPa
- vapor or sublimation pressure ([2]; 388 K, Closed cell (Static) method, Liquid): 0.1931 ± 0.0026 kPa
- vapor or sublimation pressure ([2]; 389.95 K, Closed cell (Static) method, Liquid): 0.2148 ± 0.0028 kPa
- vapor or sublimation pressure ([2]; 391.96 K, Closed cell (Static) method, Liquid): 0.2415 ± 0.003 kPa
- vapor or sublimation pressure ([2]; 395.88 K, Closed cell (Static) method, Liquid): 0.3002 ± 0.0035 kPa
- vapor or sublimation pressure ([2]; 399.75 K, Closed cell (Static) method, Liquid): 0.3687 ± 0.0041 kPa
- vapor or sublimation pressure ([2]; 403.71 K, Closed cell (Static) method, Liquid): 0.454 ± 0.0048 kPa
- vapor or sublimation pressure ([2]; 405.31 K, Closed cell (Static) method, Liquid): 0.49 ± 0.0052 kPa
- vapor or sublimation pressure ([2]; 407.66 K, Closed cell (Static) method, Liquid): 0.5539 ± 0.0057 kPa
- vapor or sublimation pressure ([2]; 409.61 K, Closed cell (Static) method, Liquid): 0.618 ± 0.0063 kPa
- vapor or sublimation pressure ([2]; 411.6 K, Closed cell (Static) method, Liquid): 0.6754 ± 0.0068 kPa
- vapor or sublimation pressure ([2]; 413.56 K, Closed cell (Static) method, Liquid): 0.751 ± 0.0074 kPa
- vapor or sublimation pressure ([2]; 415.52 K, Closed cell (Static) method, Liquid): 0.814 ± 0.008 kPa
- vapor or sublimation pressure ([2]; 417.46 K, Closed cell (Static) method, Liquid): 0.902 ± 0.0087 kPa
- vapor or sublimation pressure ([2]; 419.41 K, Closed cell (Static) method, Liquid): 0.994 ± 0.01 kPa
- Normal melting temperature ([2]; Crystal): 104.5 ± 0.5 °C
